This is an account of results in publication PMC9775191, “A Subset Screen of the Compounds Australia Scaffold Library Identifies 7-Acylaminodibenzoxazepinones as Potent and Selective Hits for Anti-Giardia Drug Discovery” (Biomedicines, 2022).

For orientation: inhibition means the change of the read-out against control, counted positive when it falls. The IC50 is the concentration that inhibits the measured activity by half.

Assay [1] concerns Neonatal foreskin fibroblast (NFF) cells. The assay can be described thus: Mammalian cell cytotoxicity assay (sulforhodamine B). The format is cell-based, human. The conditions noted are these: for inhibition at 20 µM: ±SD; for SI (48h Gd): Table S2, NFF vs 48 h Giardia IC50. The method, then:
The selectivity of compounds of interest was assessed against NFF cells. Assays were performed using sulforhodamine B and included media only, negative (no compound, no DMSO), and vehicle (DMSO) controls as previously described. A chloroquine control plate was included in each assay. […] Repurchased SN00797640 was tested in dose–response from 100 µM against NFF. Selectivity indices (SI) were calculated by dividing mammalian cell IC50 values by G. duodenalis BRIS/91/HEPU/1279 IC50 values.

The test system of assay [2] is G. duodenalis BRIS/91/HEPU/1279. The assay can be described thus: Primary Giardia screen at 10 µM (live-cell imaging, automated counting). It counts as cell-based, Giardia duodenalis. The note with it: for inhibition at 10 µM: Giardia duodenalis. The procedure, abridged: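 Compound added to 10 μM final in medium with 0.2% DMSO, one well each; plates then held in sealed chambers at 3% O2, 5% CO2 in N2; growth imaged and counted automatically at 24 and 48 h; values normalised to vehicle wells minus media blank.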

Assay [3] has the same test system. Briefly: Giardia dose response assay, assemblage B. It counts as cell-based, Giardia duodenalis. As to the method: In these assays, compounds were serially diluted (8–12-point doubling dilutions in technical duplicate) in DMSO control media, with all test wells inoculated with parasites (1.5 × 10^4 parasites for BRIS/91/HEPU/1279 and BRIS/91/HEPU/1279m1, or 3 × 10^3 parasites for BRIS/87/HEPU/713). […] All plates were sealed in culture chambers and gassed with 3% O2, 5% CO2 in N2 and incubated at 37 °C for 48 h, with parasites imaged and enumerated at 24 and 48 h. Growth inhibition was calculated as a percentage relative to vehicle controls minus any background as described above and IC50 values were determined using log-linear interpolation as previously described. […] Statistical comparison of IC50 values when required were performed using Student’s t-test.

Assay [4] has as its system methicillin resistant Staphylococcus aureus (ATCC 43300). Briefly: Anti-bacterial activity assay. The note with it: for inhibition at 50 µM: Staphylococcus aureus, ATCC43300, 50 µM, read-out: Bacterial Inhibition S. aureus. The format is cell-based. The method, then: (§1) The activity of compounds against methicillin resistant Staphylococcus aureus (ATCC 43300), Escherichia coli (ATCC 25922), Acinetobacter baumannii (ATCC 19606) and Klebsiella pneumoniae (ATCC 700603) was assessed at 50 µM in duplicate as previously described. In brief, mid-log phase bacteria cultures were added to 384-well microtiter plate wells containing compound to final cell density of 5 × 10^5 CFU/mL in 50 µL. Plates were then covered and incubated at 37 °C for 18 h without shaking. Inhibition of bacterial growth was determined by measuring absorbance at 600 nm (Tecan M1000 Pro monochromator plate reader) and calculating percentage growth inhibition relative to the negative media and bacteria without inhibitors. Vancomycin hydrochloride (Sigma-Aldrich an affiliate of Merck KGaA, Darmstadt, Germany, #861987) and colistin sulfate (Sigma-Aldrich an affiliate of Merck KGaA, Darmstadt, Germany, C4461) were on each plate as positive controls for Gram-positive (S. aureus) and Gram-negative (E. coli, A. baumannii and K. pneumoniae) bacteria, respectively.

Assay [5] has as its system Escherichia coli (ATCC 25922). The assay can be described thus: Anti-bacterial activity assay. The conditions noted are these: for inhibition at 50 µM: Escherichia coli, ATCC25922, 50 µM, read-out: Bacterial Inhibition E. coli. The format is cell-based. The method, then:
as §1

For assay [6], the system named is Acinetobacter baumannii (ATCC 19606). The assay can be described thus: Anti-bacterial activity assay. The format is cell-based. The note with it: ATCC19606, 50 µM. As to the method:
as §1

Assay [7] has as its system Klebsiella pneumoniae (ATCC 700603). The assay can be described thus: Anti-bacterial activity assay. The note with it: ATCC700603, 50 µM, read-out: Bacterial Inhibition K. pneumoniae. The format is cell-based. The method, then: as §1
[8] abbreviates: 24 h, first singlicate assay, read-out: % Inhibition n=1 24h.
Setting [9] is: 24 h, re-assessment, read-out: % Inhibition n=2 24h.
The mark [10] stands for this setting: 24 h, read-out: Average % Inhibition 24h.
[11] abbreviates: 48 h, first singlicate assay, read-out: % Inhibition n=1 48h.
Setting [12] is: 48 h, re-assessment, read-out: % Inhibition n=2 48h.
Where [13] appears, read: 48 h, read-out: Average % Inhibition 48h.
Setting [14] is: Giardia duodenalis, 24 h, read-out: G. duodenalis IC50 24h, Table S2, 24 h, ±SD, max 10 µM.
Setting [15] is: Giardia duodenalis, 48 h, Table S2, 48 h, ±SD, max 10 µM, read-out: G. duodenalis IC50 48h.

Like-named read-outs stand apart in the source and are kept apart here.

Take `O=[N+]([O-])c1ccc(N2CCC(c3ncc[nH]3)CC2)c2ccncc12` [SN00772378, O=N(=O)c1ccc(N2CCC(CC2)c2ncc[nH]2)c2ccncc12]: the inhibition at 20 µM in assay [1] (Homo sapiens, NFF) is 1.2 ± 1%. The inhibition at 10 µM in assay [2] (setting [8]) came out at 80.4%; in assay [2] (setting [9]) it was 47.7%; in assay [2] (setting [10]), 64%; in assay [2] (setting [11]), 88.7%; in assay [2] (setting [12]), 87.4%; in assay [2] (setting [13]), 88%. For the same compound, the IC50 is greater than 10 µM in assay [3] (setting [14]) and 4.79 ± 1.45 µM in assay [3] (setting [15]). Also, the inhibition at 50 µM in assay [4] is 34.4%; in assay [5], 5.55%; in assay [6] it was 4.73%; in assay [7], 15.6%.
For `COc1ccc(-c2csc(C3=C(N)N(CC(C)(C)CN(C)C)CC3=O)n2)cc1OC` [SN00776314, COc1cc(ccc1OC)c1csc(n1)C1=C(N)N(CC1=O)CC(C)(C)CN(C)C], the inhibition at 20 µM in assay [1] (Homo sapiens, NFF) was 24 ± 26.8%. In assay [1], the “SI (48h Gd)” value was greater than 2. Also, the inhibition at 10 µM in assay [2] (setting [8]) was 31.7%; in assay [2] (setting [9]) it was 16.2%; in assay [2] (setting [10]), 24%; in assay [2] (setting [11]) it was 85.1%; in assay [2] (setting [12]) it was 68.5%; in assay [2] (setting [13]) it was 76.8%. Moreover, the inhibition at 10 µM in assay [3] (Giardia duodenalis, read-out: % inhibition @ 10µM 48h (comment), Table S2 comment, 10 µM, 48 h) was determined as 48.3%. Moreover, the IC50 in assay [3] (setting [14]) was greater than 10 µM; in assay [3] (setting [15]), 9.16 µM. Also, the inhibition at 50 µM in assay [4] is 13.2%; in assay [5], 5.58%; in assay [6], 9.53%; in assay [7], 10.9%.
In the case of `COc1ccc(C)cc1N1C(=O)C(c2ccccc2)C(c2nc3ccccc3s2)=C1N` (centres unmarked) [SN00776374, COc1ccc(C)cc1N1C(=C(c2nc3ccccc3s2)C(c2ccccc2)C1=O)N], the inhibition at 20 µM in assay [1] (Homo sapiens, NFF) is 100.4 ± 0.2%. Moreover, the “SI (48h Gd)” value in assay [1] was less than 20. The “Average % Inhibition 48h” value in assay [2] (48 h) is greater than 90%. Besides, the inhibition at 10 µM is 90.5% in assay [2] (setting [8]); 90% in assay [2] (setting [9]); 90.3% in assay [2] (setting [10]); 95.8% in assay [2] (setting [11]); 97.6% in assay [2] (setting [12]); 96.7% in assay [2] (setting [13]). Besides, the IC50 in assay [3] (setting [14]) came to 1.76 ± 0.35 µM; in assay [3] (setting [15]), 1.01 ± 0.29 µM. The inhibition at 50 µM in assay [4] came out at 16.6%; in assay [5], 2.94%; in assay [6], 13.3%; in assay [7], 11.7%.
For the compound `Cc1cc(-c2cc(C(=O)Nc3ccc(N4CCN(C)CC4)nc3)c3cnn(C(C)C)c3n2)c(C)o1` [SN00776497], the IC50 in assay [1] (Homo sapiens, NFF, mean ± SD, read-out: IC50 NFF) is 8.1 µM; in assay [3] (setting [14]), 0.25 ± 0.27 µM; in assay [3] (Giardia duodenalis, 48 h, BRIS/91/HEPU/1279, 48 h, mean ± SD, read-out: IC50 Giardia (48 h)), 0.08 µM. For the same compound, the Selectivity in assay [1] (NFF IC50 divided by G. duodenalis BRIS/91/HEPU/1279 IC50) is given as 101. Also, in assay [1], the “SI (48h Gd)” value is listed as 101. In addition, the “Average % Inhibition 48h” value in assay [2] (48 h) is reported as greater than 90%. In addition, the inhibition at 10 µM in assay [2] (setting [8]) turned out to be 94.6%; in assay [2] (setting [9]), 97.2%; in assay [2] (setting [10]) it was 95.9%; in assay [2] (setting [11]), 98%; in assay [2] (setting [12]), 98.5%; in assay [2] (setting [13]), 98.2%. The “fold more potent than metronidazole” value in assay [3] (48 h IC50) is reported as greater than 30 fold. Besides, the “Bacterial Inhibition S. aureus” value in assay [4] (50 µM) is 56%. Moreover, the inhibition at 50 µM in assay [4] came out at 55.8%; in assay [5], 5.45%; in assay [6] it was 19.6%; in assay [7], 8.25%. Besides, in assay [5] (E. coli, A. baumannii and K. pneumoniae / bacteria, Table S2), the “selectivity index over bacteria” value was greater than 600.
For the compound `O=S1(=O)CCC(n2cc(-c3cnn(-c4ccccc4)c3)cn2)C1` (centres unmarked) [SN00776738, O=S1(=O)CCC(C1)n1ncc(c1)c1cnn(c1)c1ccccc1], the inhibition at 20 µM in assay [1] (Homo sapiens, NFF) is 16 ± 0.6%. Besides, the inhibition at 10 µM in assay [2] (setting [8]) was 46.8%; in assay [2] (setting [9]) it was 44.3%; in assay [2] (setting [10]), 45.5%; in assay [2] (setting [11]), 52.3%; in assay [2] (setting [12]), 80.1%; in assay [2] (setting [13]), 66.2%. Moreover, the IC50 in assay [3] (setting [14]) and in assay [3] (setting [15]) was greater than 10 µM in each case. The inhibition at 50 µM is -13.4% in assay [4], 5.37% in assay [5], -4.28% in assay [6] and 6.87% in assay [7].
Regarding `CN(C)CCn1cc(C(=O)c2cc(Cl)ccc2O)cc1-c1nc2ccccc2c(=O)[nH]1` [SN00778038, CN(C)CCn1cc(cc1c1nc2ccccc2c(=O)[nH]1)C(=O)c1cc(Cl)ccc1O], the inhibition at 20 µM in assay [1] (Homo sapiens, NFF) came to 8.4 ± 4.7%. In addition, the “SI (48h Gd)” value in assay [1] was greater than 5. The inhibition at 10 µM in assay [2] (setting [8]) turned out to be 45.3%; in assay [2] (setting [9]) it was 44.7%; in assay [2] (setting [10]), 45%; in assay [2] (setting [11]), 85.2%; in assay [2] (setting [12]), 86.5%; in assay [2] (setting [13]) it was 85.8%. Also, the IC50 is greater than 10 µM in assay [3] (setting [14]) and 6.39 ± 2.8 µM in assay [3] (setting [15]). Besides, the inhibition at 50 µM is -9.58% in assay [4], -2.44% in assay [5], -8.73% in assay [6] and -1.96% in assay [7].
`Cc1ncc([N+](=O)[O-])n1Cc1csc(Cc2ccccc2)n1` [SN00780011, O=N(=O)c1cnc(C)n1Cc1csc(Cc2ccccc2)n1]: the inhibition at 20 µM in assay [1] (Homo sapiens, NFF) is 9.2 ± 12.4%. The “SI (48h Gd)” value in assay [1] is reported as greater than 3. Besides, the inhibition at 10 µM in assay [2] (setting [8]) is 33.3%; in assay [2] (setting [9]), 27%; in assay [2] (setting [10]), 30.1%; in assay [2] (setting [11]), 54.9%; in assay [2] (setting [12]) it was 79.2%; in assay [2] (setting [13]), 67.1%. In addition, the values for the IC50 in assay [3] (setting [14]) and in assay [3] (setting [15]) were greater than 10 µM and 5.48 µM, respectively. For the same compound, the inhibition at 50 µM amounted to 11.7% in assay [4], 8.95% in assay [5], 10.5% in assay [6] and 16.4% in assay [7].
For the compound `O=[N+]([O-])c1cc(F)ccc1Sc1nnc(N2CCOCC2)s1` [SN00781107, Fc1ccc(Sc2nnc(s2)N2CCOCC2)c(c1)N(=O)=O], the inhibition at 20 µM in assay [1] (Homo sapiens, NFF) was -19.8 ± 44.9%. Further, the inhibition at 10 µM in assay [2] (setting [8]) stood at 34%; in assay [2] (setting [9]), 27.7%; in assay [2] (setting [10]) it was 30.8%; in assay [2] (setting [11]), 64.2%; in assay [2] (setting [12]) it was 57.4%; in assay [2] (setting [13]), 60.8%. Besides, the results for the IC50 in assay [3] (setting [14]) and in assay [3] (setting [15]) were 6.87 ± 1.88 µM and 1.86 ± 2.52 µM, respectively. Further, the inhibition at 50 µM in assay [4] was found to be 4.13%; in assay [5], 2.28%; in assay [6], 3.43%; in assay [7], 10.6%.
